Source: article PMC6736633 (Bioorganic & medicinal chemistry letters, 2019)

Tested on: Mycobacterium tuberculosis (Mtb) H37Rv
Experiment: Mtb luminescence assay
Assay type: cell-based
Details: for reduction in Mtb signal (in words) / relative Mtb signal: 20 μM

Row | Structure (SMILES) | reduction in Mtb signal (in words) | relative Mtb signal | further results
1 | COc1ccc2nccc(Nc3ccc(NC(=O)c4ccc(C)cc4)c(O)c3)c2c1 [Compound 32] | no reduction | – | –
2 | COc1cc2nccc(Nc3ccc(NC(C)=O)cc3)c2cc1OC [Compound 31] | – | – | effect on Mtb (in words) (across tested concentrations up to 20 μM): no effect
3 | COc1cc2nccc(Nc3ccc(OCc4cccc(F)c4)c(Cl)c3)c2cc1OC [Compound 28] | – | 10% | –
4 | COc1ccc2c(Nc3ccc(NC(=O)c4ccc(C)cc4)c(O)c3)ccnc2c1 [Compound 33] | no reduction | – | –
5 | C#Cc1cccc(Nc2ncnc3cc(OCCOC)c(OCCOC)cc23)c1 [Erlotinib] | – | – | Mtb signal at plateau (plateau of effect): approximately 70%
6 | CS(=O)(=O)CCNCc1ccc(-c2ccc3ncnc(Nc4ccc(OCc5cccc(F)c5)c(Cl)c4)c3c2)o1 [Lapatinib] | – | below 10% | –
